Results published in US5693812A, “Polymorphic forms of an angiotensin II antagonist” (priority 1996, dated 1997).
Several values for one entry are separate records, joined by “and”; a condition that tells them apart may be missing. Equal entries are not always repeated. Structures can show the parent of a compound that is named as a salt.

Tests used:
AT1 receptors = settings: background statement; cited from earlier work
AT2 binding sites = settings: background statement; cited from earlier work
[1] = Solubility in crystallization solvent (water/methanol/isopropyl acetate); type: physicochemical; settings: 1:2:2 water/methanol/isopropyl acetate
Method: Step K: Preparation of 3-[2'-(N-Benzyl)sulfonamidobiphenyl-4-yl]methyl-5,7-dimethyl-2-ethyl-3H-imidazo[4,5-b]pyridine potassium salt--(Forms I, Id and W) [drawing 13] In a 72-L four-necked flask fitted with an overhead stirrer and a reflux condenser, 3-[2'-(N-benzyl)sulfonamidobiphenyl-4-yl]methyl-5,7-dimethyl-2-ethyl-3H-imidazo[4,5-b]pyridine 1 (5.04 kg, 9.6 mol), methanol (14.5 L) and water (2.5 L) are mixed. The slurry is warmed to 62° C. under a nitrogen atmosphere and 1.94M potassium hydroxide (4.96 L, 9.61 mol) is added to the slurry at 62° C. over 1.5 hours to provide a homogeneous solution. Isopropyl acetate (13.83 L) is then added at 65° C. and the mixture is warmed to 70° C. The homogeneous solution is filtered at 70° C. to remove any particulates that are present. The filtrate is diluted with isopropyl acetate (1.3 L), methanol (0.6 L) and water (0.1 L). […] The homogeneous mixture is cooled to 52° C. over 2 hours, whereupon potassium salt seed of form "I" (140 g) is added. This mixture becomes cloudy after 30 min. The mixture is aged for 10 hours at 52° C. The white slurry is cooled to 48° C. over 1 hour and stirred for 3 hours. […] The K-salt is considered dry when <0.05% methanol and isopropyl acetate are detected by ^1 H NMR. […] The water content can be monitored by TG analysis. […] The crystal form is monitored by X-ray analysis. […]

[2] = Crystal form stability in water (XRPD of remaining solid); type: physicochemical; settings: room temperature, listed as I, potassium salt
From the text: [13) S. R. Byre. "Solid State Chemistry of Drugs." Academic Press, New York, 1982.] […] Recrystallization of any of these lots from solvents like ethanol, methanol, isopropanol, acetone, etc. gave new crystal forms different from the original forms. […] Solubility in water at room temperature was one of these techniques. The equilibrium solubility in water, at room temperature for five polymorphs (Forms "B", "C", "D", "F", and "G") were the same (Table 1). When the remaining solids were filtered, air dried or vacuum dried overnight at room temperature the XRPD patterns had changed from the initial patterns and all were exactly the same. These experiments indicate that all of the crystal forms converted in water at room temperature to a new crystalline form designated […].
The remaining form "I" solid after equilibrium solubility studies in water was removed by filtration and vacuum dried overnight at room temperature.
After the discovery of form "I", form "D" could no longer be isolated in our laboratory. TGA studies indicate that form "I" of 3-[2'-(N-benzoyl)sulfonamidobiphenyl-4-yl]methyl-5,7-dimethyl-2-ethyl-3H-imidazo[4,5-b]pyridine potassium salt is a dihydrate (FIG. 4).

[3] = Heat of solution by solution calorimetry (Setaram C-80); type: physicochemical
Method: The heat of solution of different crystal forms of 3-[2'-(N-benzoyl)sulfonamidobiphenyl-4-yl]methyl-5,7-dimethyl-2-ethyl-3H-imidazo[4,5-b]pyridine potassium salt were studied at 30° C. The heat of solution is a measure of the crystal lattice energy. […] Heats of solution had to be conducted in a solvent which dissolved the samples quickly without conversion to another polymorph. This really limited solvents which could be used. Dimethylsulfoxide was chosen for this reason. The heats of solution therefore have contributions from the lattice energy of the solid as well as heat of dilution of lattice water in dimethylsulfoxide. The calorimeter therefore produces a complex signal that has an exothermic contribution from the water and an additional contribution from the energy required to dissolve the crystal. […] Additional heats of solution were determined in a mixed solvent system of 88% dimethylsulfoxide and 12% water. This system was used to minimize the contribution of moisture to the heat of solution.
(§1) The crystal forms were characterized and evaluated by measuring the heats of solution or solution calorimetry, solubility data, x-ray powder diffraction patterns (XRPD), differential scanning calorimetry (DSC) and thermogravimetric analysis (TGA). Heats of solution at 30° C. were obtained in the Setaram C-80 calvet calorimeter with sample size of 7-13 mg dissolved into 5 ml of 88% DMSO 12% water for a final concentration of 1.4-2.6 mg/ml. XRPD patterns were recorded using an automated Siemens X-ray diffractometer with copper tube K alpha radiation. DSC and TGA were conducted using a Perkin Elmer series 7 instrument with a scan rate of 10° C./min over the temperature range of 30°-300° C.

[4] = Hygroscopicity studies / exposure to humidity; type: physicochemical
[5] = Thermogravimetric analysis (TGA) weight loss / water content; type: physicochemical; settings: for TG of the potassium salt: dried product, Example 1 Step K
Method: as §1, with “30°-300° C. Utilizing these techniques the thermodynamic stability of the polymorphs of 3-[2'-(N-benzoyl)sulfonamidobiphenyl-4-yl]methyl-5,7-dimethyl-2-ethyl-3H-imidazo[4,5-b]pyridine potassium salt was determined.” for “30°-300° C.”
Step K: Preparation of 3-[2'-(N-Benzyl)sulfonamidobiphenyl-4-yl]methyl-5,7-dimethyl-2-ethyl-3H-imidazo[4,5-b]pyridine potassium salt--(Forms I, Id and W) [drawing 13] In a 72-L four-necked flask fitted with an overhead stirrer and a reflux condenser, 3-[2'-(N-benzyl)sulfonamidobiphenyl-4-yl]methyl-5,7-dimethyl-2-ethyl-3H-imidazo[4,5-b]pyridine 1 (5.04 kg, 9.6 mol), methanol (14.5 L) and water (2.5 L) are mixed. The slurry is warmed to 62° C. under a nitrogen atmosphere and 1.94M potassium hydroxide (4.96 L, 9.61 mol) is added to the slurry at 62° C. over 1.5 hours to provide a homogeneous solution. Isopropyl acetate (13.83 L) is then added at 65° C. and the mixture is warmed to 70° C. The homogeneous solution is filtered at 70° C. to remove any particulates that are present. The filtrate is diluted with isopropyl acetate (1.3 L), methanol (0.6 L) and water (0.1 L). […] The homogeneous mixture is cooled to 52° C. over 2 hours, whereupon potassium salt seed of form "I" (140 g) is added. This mixture becomes cloudy after 30 min. The mixture is aged for 10 hours at 52° C. The white slurry is cooled to 48° C. over 1 hour and stirred for 3 hours. Finally, the crystallization mixture is cooled to 0° C. at a rate of 1° C./12.5 min. and aged for 2 hours at 0° C. […] The solid is centrifuged at 0° C. and displacement-washed with a mixture of 2:2:1 cold (0° C.) isopropyl acetate/methanol/water (5.65 L) followed by isopropyl acetate (2.3 L). The solid is semi-dried to a TG of 10-15% by spin drying. The mother liquors contain 21 wt % of 3-[2'-(N-benzyl)sulfonamidobiphenyl-4-yl]methyl-5,7-dimethyl-2-ethyl-3H-imidazo[4,5-b]pyridine potassium salt. At this stage, the crystal form of the product is form "W". The product is powdered by passing through a screen (size=12). The solid is dried by passing dry nitrogen over the solid under vacuum at 22° C. for 5 hours to yield 4.55 kg of 3-[2'-(N-benzyl)sulfonamidobiphenyl-4-yl]methyl-5,7-dimethyl-2-ethyl-3H-imidazo[4,5-b]pyridine potassium salt as the form "I" with a purity of 99.7% (assay-HClO4 titration) and TG of 7-10%. Generally, the wet cake consists of residual water, methanol and isopropyl acetate. The K-salt is considered dry when <0.05% methanol and isopropyl acetate are detected by ^1 H NMR. The product is further powdered by passing the solid through a Quadro Comil (model 197s, screen size=1143 mm round impeller) to yield 4.5 kg. The product is dried to a TG of 4.6-5.5% by the passage of dry nitrogen over the solid under vacuum at 22° C. After 10 hours, 4.24 kg (78%) of the potassium salt as the form "I" is obtained with a TG of […] (99.7 wt % by titration). The water content can be monitored by TG analysis. The TG of the potassium salt of form "I" is 4.6-5.5%. The crystal form is monitored by X-ray analysis. When the potassium salt is over dried, the crystal form converts to form "Id" (TG<4.6%). […]

[6] = Crystal form stability on heating; type: physicochemical; settings: about 216° C.
[7] = Equilibrium solubility in water at room temperature; type: physicochemical

CCc1nc2c(C)cc(C)nc2n1Cc1ccc(-c2ccccc2S(=O)(=O)NC(=O)c2ccccc2)cc1 [3-[2'-(N-benzoyl)sulfonamidobiphenyl-4-yl]methyl-5,7-dimethyl-2-ethyl-3H-imidazo[4,5-b]pyridine potassium salt]
affinity for AT1 receptors (AT1 receptors): high affinity
affinity for AT2 binding sites (AT2 binding sites): low affinity
solubility of the potassium salt at 0° C. ([1]; 0° C.): 15000 µg/mL
solubility of the potassium salt at 60° C. ([1]; 60° C.): 174000 µg/mL

CCc1nc2c(C)cc(C)nc2n1Cc1ccc(-c2ccccc2S(=O)(=O)NC(=O)c2ccccc2)cc1 [Form I, 3-[2'-(N-benzoyl)sulfonamidobiphenyl-4-yl]methyl-5,7-dimethyl-2-ethyl-3H-imidazo[4,5-b]pyridine potassium salt]
crystal form after suspension in water [2]: remained unchanged
ΔH solution 88% DMSO/12% H2O ([3]; 88% DMSO/12% H2O, 30° C., listed as I, potassium salt): -25.68 ± 2.67 J/g
heat of solution, ranking ([3]; 88% dimethylsulfoxide and 12% water): most endothermic
ΔH solution DMSO at 30° C. ([3]; DMSO, 30° C., listed as I, potassium salt): -8.56 ± 1.64 J/g
heat of solution, ranking ([3]; dimethylsulfoxide, 30° C.): most endothermic
thermodynamic stability ([3]; from heats of solution and equilibrium solubility, listed as I, potassium salt): thermodynamically stable crystal form
hygroscopicity ([4]; relative humidities of 47% and above): non-hygroscopic
% Weight Loss (Δ 30-150° C. by TGA) ([5]; 30-150° C., listed as I, potassium salt): 4.1-5.9%
hydration state ([5]; TGA, listed as I, potassium salt): dihydrate
TG of the potassium salt ([5]; listed as I): 4.6-5.5% and 6.1% and 7-10%
crystal form after heating to about 216° C. [6]: converted to form H
Solubility in water ([7]; room temperature, Table I, potassium salt): 8000 ± 400 µg/mL
solubility thermodynamic ([7]; water, pH 7.8 printed for the other crystal forms): 8000 µg/mL

CCc1nc2c(C)cc(C)nc2n1Cc1ccc(-c2ccccc2S(=O)(=O)NC(=O)c2ccccc2)cc1 [Form Id, 3-[2'-(N-benzoyl)sulfonamidobiphenyl-4-yl]methyl-5,7-dimethyl-2-ethyl-3H-imidazo[4,5-b]pyridine potassium salt]
reconversion upon exposure to ambient humidity ([4]; ambient humidity): reconverted to form "I"
TG of the potassium salt ([5]; listed as Id): < 4.6%
